Experimental findings from patent US7494980B2, “Antimicrobial peptide and methods of use thereof” (The United States of America as represented by the …, priority 2003, dated 2009) are described below.

Broadly, the MIC is the lowest concentration that inhibits growth of the organism. High values mean a less susceptible organism, low ones a more susceptible organism. As a reminder, the MBC is the smallest concentration meeting the test's criterion for killing. A higher MBC goes with weaker bactericidal potency.

Ends that are not written are not given here.

Experiment [1] has as its system Actinobacillus actinomycetemcomitans ATCC 43718. As to the kind of experiment: Bactericidal assay (log reduction in viable counts). The class given is cell-based. From the text:
(§1) Strains used in Examples 3-6 included ATCC and laboratory strains of different oral bacteria. These included: Actinomyces naeslundii strain T14V-J1, Actinomyces israelii ATCC 10049, Streptococcus mutans strains LT 11 and ATCC 25175, Streptococcus sobrinus ATCC 33478, Streptococcus gordonii strains DL1 and ATCC 51656, Streptococcus sanguis strains SK36 and ATCC 10556, Streptococcus salivarius ATCC 9222, Streptococcus oralis strains 34 and ATCC 35037, Lactobacillus salivarius ATCC 29602, Lactobacillus acidophilus ATCC 4357, and Actinobacillus actinomycetemcomitans ATCC 43718. S. mutans strain LT 11 was kindly provided by Lin Tao, University of Illinois at Chicago, Ill. S. gordonii DLI, S. sanguis SK36, and S. oralis 34 were provided by John Cisar, National Institute of Dental and Craniofacial Research, NIH, Bethesda, Md.
(§2) The bactericidal assay was performed according to procedures described by Miyasaki et al. (1997, 1998) with a slight modification. […] Susceptibility was determined by examining the log reduction in viability counts of organisms that had been exposed to different concentrations of KSL. […] Bactericidal activity was also expressed as the 99% effective dose (ED99), which is the concentration of the antimicrobial decapeptide at which there is a 2-log or more reduction in c.f.u. […]
(§3) In addition to the determinations of MICs and MBCs of KSL, log reductions in viable counts of selected oral bacteria caused by KSL were also determined. […] With the exception of Actinobacillus actinomycetemcomitans, for which the assays were performed in 0.01% BHI, bactericidal action of KSL was determined in isotonic HBSS after incubation with the targeted bacteria for 1 h at 37° C. KSL at 6.25 μg ml^−1, which was determined to be the 99% effective dose (ED99), caused more than 2 log reductions in viable counts of the organisms tested, which included L. salivarius ATCC 29602 (FIG. 3a), S. mutans ATCC 25175^T (FIG. 3b), S. gordonii ATCC 51656 (FIG. 3c), and Actinobacillus actinomycetemcomitans ATCC 43718 (FIG. 3d).

For experiment [2], the system named is S. mutans LT11. As to the kind of experiment: In vitro susceptibility (broth microdilution MIC, MBC by spiral-plating). Particulars: 4 × 10^7 cells ml^−1, 24-48 h. The class given is cell-based, Streptococcus mutans.
Excerpt: as §1, with “Md. […]” for “Md.”
MICs were determined as described by Fuchs et al. (1998) with a slight modification. […] The MIC was defined as the lowest concentration of the peptide that prevented visible turbidity, as measured at 600 nm by using an ELISA reader (Titertek Multiskan MCC/340). […] Minimum bactericidal concentrations (MBCs) were determined by spiral-plating (Spiral Plater Autoplate 4000; Spiral Biotech) 50 μl from each clear well (≧MIC) onto BAP.

The test system of experiment [3] is S. mutans ATCC 25175. As to the kind of experiment: Bactericidal assay (log reduction in viable counts). The class given is cell-based, Streptococcus mutans.
Excerpt: as §1, §2, §3

“KKVVFKVKFK-NH2 [KSL, lys-lys-val-val-phe-lys-val-lys-phe-lys]”: the “log reduction in viable counts” value in experiment [1] (6.25 μg ml^−1, 0.01% BHI, FIG. 3d) is on record as “more than 2 log”; in experiment [3] (6.25 μg ml^−1, HBSS, FIG. 3b), “more than 2 log”. Besides, the “ED99 (99% effective dose)” value in experiment [1] (0.01% BHI, 1 h at 37° C.) turned out to be 6.25 µg/mL; in experiment [3] (isotonic HBSS, 1 h at 37° C.), 6.25 µg/mL. The reduction in viability in experiment [1] (concentrations of <10 μg ml^−1) and in experiment [3] (concentrations of <10 μg ml^−1) was more than 3 logs each time. Besides, the MIC in experiment [2] (MHB, 37° C.) came out at 25 µg/mL. In experiment [2] (clear MIC wells plated on BAP), this substance came in with an MBC of 100 µg/mL.
